In patent publication US12233413B2, “Massively parallel microfluidic cell analyzer for high throughput mechanophenotyping” (priority 2018, dated 2025):
Where two headings read alike, the source gives them in different places.

Assays:
[1] = test system: HeyA8 ovarian cancer cells; format: cell-based
Protocol: Cell transit times were determined in accordance with the approach described above. […] In the testing, Phosphate Buffered Saline (PBS) suspended HeyA8 ovarian cancer cells were driven through the device using a pressure pump controller (Fluigent MFCS-EZ) at 80 mbar. Three suspensions of cells with varying stiffness were prepared. The first sample was exposed to 1 μM Latrunculin A, abbreviated as LatA, (Sigma-Aldrich), an Actin polymerization inhibitor, for 60 mins at 37° C. to reduce the cell stiffness. The second sample was left untreated. […] In operation, the sensor network 620 was driven with an 500 kHz AC signal and the electrical sensor data from the chip was recorded using a lock-in-amplifier (Zurich Instruments HF2LI) and sampled into a computer. The cell size and the transit time were both measured from the sensor signal peak amplitude and the time delay between the code waveforms corresponding to sensor pairs, respectively.

[2] = test system: MDA-MB-231 (human mammary adenocarcinoma) cells; format: cell-based
Protocol: For each population in our experiments, we used the computed sensor signal amplitude and constriction transit time as measures of the cell size and its stiffness, respectively (see FIGS. 10A-10C).
Because the data on different cell populations were acquired under the same driving pressure and electrical excitation, we could directly compare the characterization results (see FIG. 10D).
For the single frequency device, two different sample of MDA-MB-231 cells were treated with Latrunculin A (Sigma-Aldrich; St. Louis, MO) and formaldehyde (Sigma-Aldrich; St. Louis, MO) and suspended in Phosphate Buffered Saline (PBS). […] Prior to experiments, the cells were trypsinized for two minutes, pelleted, resuspended in PBS and mixed gently to dissociate cell clusters that may have formed. Finally, the suspension was diluted with PBS to a cell concentration of 1.5×10^6 cells/mL. For the LatA exposure, 100 μg of LatA in lyophilized powder form was reconstituted in dimethyl sulfoxide (DMSO), then diluted in PBS to form a 5.9 nM stock solution. The trypsinized and pelleted MDA-MB-231 cells were mixed with 1 mL of 1 nM LatA and incubated at 37° C. for 60 mins. The cells were pelleted once more and resuspended in PBS. […] The trypsinized and pelleted MDA-MB-231 cells were mixed with diluted 4% PFA and incubated at 37° C. for 10 mins. The cells were pelleted once more and resuspended in PBS.
During the above-described experiment, the cell sample was loaded into a sealed 10 mL laboratory tube and pneumatically driven through the device using a software-controlled pressure regulator (MFCSEZ, Fluigent). The driving pressure was 100 mbar for both single-frequency and multi-frequency devices. In the case of the single-frequency device, the electrical networks were excited using a 800 mVpp, 500 kHz sinusoidal signal generated by the lock-in amplifier (HF2LI, Zurich Instruments). For the multi-frequency device, the 500 kHz and 900 kHz sine signals were generated by the lock-in amplifier, whereas the 1300 kHz signal was obtained using a waveform generator (33612A, Keysight), all at 800 mVpp.

SMILES | longer transit time of treated cells compared to the untreated cells [1] [%] | average constriction transit time of treated cells [2] [ms] | transit time of the untreated cells longer than that of the LatA treated cells, on average ([1]; HeyA8 cells in PBS, 1 μM Latrunculin A, 60 mins at 37° C., driven at 80 mbar) [%] | less constriction transit time than untreated cells, on average ([2]; MDA-MB-231, 1 nM LatA 60 mins at 37° C., 100 mbar) [%] | average constriction transit time of treated cells ([2]; MDA-MB-231, 100 mbar, 1.5×10^6 cells/mL, LatA 1 nM 60 mins 37° C., fixation with diluted 4% PFA 10 mins 37° C.) [ms]
C=O [Formaldehyde] | 36 | 54.01 | – | – | –
C/C1=C/C(=O)O[C@@H]2C[C@@H](CC[C@H](C)/C=C\C=C\CC1)O[C@@](O)([C@@H]1CSC(=O)N1)C2 [LatA, Latrunculin A] | – | – | 34 | 8.9 | 42.35
